From patent EP4741392A1, “1H-PYRAZOLO[4,3-C]PYRIDINE COMPOUND, AND COMPOSITION THEREOF AND USE THEREOF” (Shenzhen TargetRx Co., Ltd., priority 2023, dated 2025) come the findings set out here.

What all share (type): cell-based
One test has as its system NIH/3T3 BTK C481S cells. Description: Phosphor-BTK(Y223) assay, adherent cells. The note with it: Mus musculus, NIH3T3, phosphorylated BTK Y223, NIH/3T3 BTK C481S cells; read-out: NIH/3T3 BTK-C481S pBTK. On the procedure:
(§1) The purpose of this assay was to simply, quickly and directly detect the level of endogenous BTK phosphorylation in cells.
(§2) The steps for handling adherent cells were as follows: • 1) NIH/3T3 BTK WT cells (7.5 k/well) and NIH/3T3 BTK C481S cells (10 k/well) were plated in a 96-well plate, respectively, and cultured at 37 °C and 5% CO2 overnight. • 2) A 3-fold final concentration gradient dilution of a compound was prepared, and 50 µL of it was taken and added to 100 µL of cell culture. 0.5% DMSO was used as a positive control for cell growth. • 3) The plate was incubated at 37 °C and 5% CO2 for 0.5 h. • 4) Na3VO4 at a final concentration of 1mM was added, and the plate was incubated at 37 °C and 5% CO2 for 2 hours. • 5) During the incubation, the following reagents were prepared: • 1x added lysis buffer: 3 vol ddH2O + 1 vol 4x lysis buffer + 100x blocking reagent. • p-BTK (Y223) cryptate-antibody and p-BTK (Y223) d2-antibody working solutions: 1 volume of each cryopreserved antibody (stored at - 20 °C) was added to 19 times the volume of assay buffer (stored at 4 °C). • 6) After the incubation was completed, the medium was removed and 50 µL of 1x added lysis buffer was added. The plate was centrifuged at 500 rpm at room temperature for 30 min. • 7) The lysate was mixed well and 16 µL of it was transferred to a 384-well plate. 1 × added lysis buffer was used as a blank control. • 8) 4 µL of pre-mixed working solutions of the two antibodies (cryptate Ab:d2 Ab = 1:1) was added, and the plate was sealed. • 9) The plate was incubated at room temperature overnight. 10) The plate was read at 665nm and 620nm using Biotek cytation3.0 microplate reader, and the ratio of 665/620nm of each well was calculated.
(§3) The IC50 (half-maximal phosphorylation inhibitory concentration) of the phosphorylated BTK Y223 of the compound was obtained using the following nonlinear fitting formula: Y = Bottom + (Top−Bottom)/(1+10^(∧)((LogIC50−X)*HillSlope)) [formula] • X: Log value of the compound concentration • Y: Inhibition rate (% inhibition) • Top: Maximum response • Bottom: Baseline response • HillSlope: Slope of the curve
(§4) The formula for calculating cell phosphorylation inhibition rate (inhibition rate %) was: Inhibition rate% = 1−(eachconcentrationwell-blankwell)/(positivecontrolwell−blankwell) [formula]

A further test has as its system NIH/3T3 BTK WT cells. Description: Phosphor-BTK(Y223) assay, adherent cells. The note with it: Mus musculus, NIH3T3, phosphorylated BTK Y223, NIH/3T3 BTK WT cells; read-out: NIH/3T3 BTK-WT pBTK. On the procedure: as §1, §2, §3, §4
In the next test the test system is Ramos cells with BTK WT. Description: Phosphor-BTK(Y223) assay, suspended cells. The note with it: Homo sapiens, Ramos, phosphorylated BTK Y223, Ramos cells with BTK WT. As to the method: as §1
The steps for handling suspended cells were as follows: • 1) Ramos cells with BTK WT (2.5 k/well), BTK C481S (2.5 k/well), or BTK T474I (2.5 k/well) were plated in a 96-well plate, respectively. A compound of different concentration gradients was added using Tecan D300e, and the plate was incubated at 37 °C and 5% CO2 for 2 hours. • 2) 8.33 µL of 20 mM Na3VO4 was added to bring the final concentration to 5 mM, and the plate was incubated at 37 °C and 5% CO2 for 3 h. • 3) During the incubation, the following reagents were prepared: • 4x added lysis buffer: 24 vol 4x lysis buffer + 1 vol 25x blocking reagent. • p-BTK (Y223) cryptate-antibody and p-BTK (Y223) d2-antibody working solutions: 1 volume of each cryopreserved antibody (stored at - 20 °C) was added to 38 times the volume of assay buffer (stored at 4 °C), and mixed well. • 4) After the incubation was completed, 11.1 µL of 4x added lysis buffer was directly added. The plate was shaken at 800 rpm at room temperature for 30 min. • 5) The lysate was mixed well and 16 µL of it was transferred to a 384-well plate. 1 × added lysis buffer was used as a blank control. • 6) 4 µL of pre-mixed working solutions of the two antibodies (cryptate Ab:d2 Ab = 1:1) was added, and the plate was sealed. • 7) The plate was incubated at room temperature overnight. • 8) The plate was read at 665nm and 620nm using Biotek cytation3.0 microplate reader, and the ratio of 665/620nm of each well was calculated. Data analysis: IC50 was calculated using GraphPad Prism 7.0 software.
as §3, §4

As to `COc1ccc(F)cc1C(=O)NCc1ccc(-c2nc(C(C)C(F)(F)F)c(Br)c3[nH]nc(N)c23)cc1` (centres unmarked) [Example 4, N-(4-(3-amino-7-bromo-6-(1,1,1-trifluoropropan-2-yl)-1H-pyrazolo[4,3-c]pyridin-4-yl)benzyl)-5-fluoro-2-methoxybenzamide], the IC50 with NIH/3T3 BTK C481S cells, with NIH/3T3 BTK WT cells and in the test with Ramos cells with BTK WT was greater than 50 nM in each case.
For the molecule `COc1ccc(F)cc1C(=O)NCc1ccc(-c2nc(C(C)C(F)(F)F)c(-c3ccccn3)c3[nH]nc(N)c23)cc1` (centres unmarked) [Example 5, N-(4-(3-amino-7-(pyridin-2-yl)-6-(1,1,1-trifluoropropan-2-yl)-1H-pyrazolo[4,3-c]pyridin-4-yl)benzyl)-5-fluoro-2-methoxybenzamide], the IC50 in the test with NIH/3T3 BTK C481S cells, in the test with NIH/3T3 BTK WT cells and in the test with Ramos cells with BTK WT was greater than 50 nM throughout.
With `COc1ccc(F)cc1C(=O)NCc1ccc(-c2nc(C(C)C(F)(F)F)c(-c3cnccn3)c3[nH]nc(N)c23)cc1` (centres unmarked) [Example 8, N-(4-(3-amino-7-(pyrazin-2-yl)-6-(1,1,1-trifluoropropan-2-yl)-1H-pyrazolo[4,3-c]pyridin-4-yl)benzyl)-5-fluoro-2-methoxybenzamide], the IC50 with NIH/3T3 BTK C481S cells, in the test on NIH/3T3 BTK WT cells and with Ramos cells with BTK WT was greater than 50 nM in each case.
As to `COc1ccc(F)cc1C(=O)NCc1ccc(-c2nc(C(C)C(F)(F)F)c(-c3cncnc3)c3[nH]nc(N)c23)cc1` (centres unmarked) [Example 10, N-(4-(3-amino-7-(pyrimidin-5-yl)-6-(1,1,1-trifluoropropan-2-yl)-1H-pyrazolo[4,3-c]pyridin-4-yl)benzyl)-5-fluoro-2-methoxybenzamide], the IC50 in the test on NIH/3T3 BTK C481S cells, with NIH/3T3 BTK WT cells and in the test on Ramos cells with BTK WT was greater than 50 nM throughout.
As for `COc1ccc(F)cc1C(=O)NCc1ccc(-c2nc(C(C)C(F)(F)F)c(-c3ccnnc3)c3[nH]nc(N)c23)cc1` (centres unmarked) [Example 11, N-(4-(3-amino-7-(pyridazin-4-yl)-6-(1,1,1-trifluoropropan-2-yl)-1H-pyrazolo[4,3-c]pyridin-4-yl)benzyl)-5-fluoro-2-methoxybenzamide], the IC50 in the test with NIH/3T3 BTK C481S cells, in the test on NIH/3T3 BTK WT cells and with Ramos cells with BTK WT was greater than 50 nM in each case.
Take `COc1ccc(F)cc1C(=O)NCc1ccc(-c2nc(C(C)C(F)(F)F)c(-c3ccc(C(F)(F)F)cn3)c3[nH]nc(N)c23)cc1` (centres unmarked) [Example 12, N-(4-(3-amino-7-(5-(trifluoromethyl)pyridin-2-yl)-6-(1,1,1-trifluoropropan-2-yl)-1H-pyrazolo[4,3-c]pyridin-4-yl)benzyl)-5-fluoro-2-methoxybenzamide]: the IC50 with NIH/3T3 BTK C481S cells, with NIH/3T3 BTK WT cells and in the test with Ramos cells with BTK WT was greater than 50 nM throughout.
For `COc1ccc(F)cc1C(=O)NCc1ccc(-c2nc(C(C)C(F)(F)F)c(-c3ccc(F)cn3)c3[nH]nc(N)c23)cc1` (centres unmarked) [Example 13, N-(4-(3-amino-7-(5-fluoropyridin-2-yl)-6-(1,1,1-trifluoropropan-2-yl)-1H-pyrazolo[4,3-c]pyridin-4-yl)benzyl)-5-fluoro-2-methoxybenzamide], the IC50 in the test with NIH/3T3 BTK C481S cells, in the test on NIH/3T3 BTK WT cells and with Ramos cells with BTK WT was greater than 50 nM in each case.
Turning to `COc1ccc(F)cc1C(=O)NCc1ccc(-c2nc(C(C)C(F)(F)F)c(-c3ccccc3)c3[nH]nc(N)c23)cc1` (centres unmarked) [Example 14, N-(4-(3-amino-7-phenyl-6-(1,1,1-trifluoropropan-2-yl)-1H-pyrazolo[4,3-c]pyridin-4-yl)benzyl)-5-fluoro-2-methoxybenzamide], the IC50 with NIH/3T3 BTK C481S cells, in the test on NIH/3T3 BTK WT cells and in the test with Ramos cells with BTK WT was greater than 50 nM in each case.
As for `COc1ccc(F)cc1C(=O)NCc1ccc(-c2ncc(-c3cncnc3)c3[nH]nc(N)c23)cc1` [Example 16, N-(4-(3-amino-7-(pyrimidin-5-yl)-1H-pyrazolo[4,3-c]pyridin-4-yl)benzyl)-5-fluoro-2-methoxybenzamide], the IC50 in the test on NIH/3T3 BTK C481S cells, in the test with NIH/3T3 BTK WT cells and in the test with Ramos cells with BTK WT was greater than 50 nM throughout.
On to `COc1ccc(F)cc1C(=O)NCc1ccc(-c2ncc(-c3ccnnc3)c3[nH]nc(N)c23)cc1` [Example 20, N-(4-(3-amino-7-(pyridazin-4-yl)-1H-pyrazolo[4,3-c]pyridin-4-yl)benzyl)-5-fluoro-2-methoxybenzamide], for which the IC50 in the test with NIH/3T3 BTK C481S cells, in the test on NIH/3T3 BTK WT cells and in the test with Ramos cells with BTK WT was greater than 50 nM in each case.
Regarding `COc1ccc(F)cc1C(=O)NCc1ccc(-c2ncc(-c3ccnn3C)c3[nH]nc(N)c23)cc1` [Example 32, N-(4-(3-amino-7-(1-methyl-1H-pyrazol-5-yl)-1H-pyrazolo[4,3-c]pyridin-4-yl)benzyl)-5-fluoro-2-methoxybenzamide], the IC50 with NIH/3T3 BTK C481S cells, in the test on NIH/3T3 BTK WT cells and with Ramos cells with BTK WT was greater than 50 nM each time.
`COc1ccc(F)cc1C(=O)NCc1ccc(-c2ncc(-c3cnn4ccccc34)c3[nH]nc(N)c23)cc1` [Example 33, N-(4-(3-amino-7-(pyrazolo[1,5-a]pyridin-3-yl)-1H-pyrazolo[4,3-c]pyridin-4-yl)benzyl)-5-fluoro-2-methoxybenzamide]: the IC50 in the test with NIH/3T3 BTK C481S cells, in the test with NIH/3T3 BTK WT cells and in the test with Ramos cells with BTK WT was greater than 50 nM throughout.
For `COc1ccc(F)cc1C(=O)NCc1ccc(-c2ncc(-c3cnc4ccnn4c3)c3[nH]nc(N)c23)cc1` [Example 34, N-(4-(3-amino-7-(pyrazolo[1,5-a]pyrimidin-6-yl)-1H-pyrazolo[4,3-c]pyridin-4-yl)benzyl)-5-fluoro-2-methoxybenzamide], the IC50 in the test with NIH/3T3 BTK C481S cells, in the test with NIH/3T3 BTK WT cells and with Ramos cells with BTK WT was greater than 50 nM throughout.
As for `COc1ccc(F)cc1C(=O)NCc1ccc(-c2ncc(-c3cccnn3)c3[nH]nc(N)c23)cc1` [Example 40, N-(4-(3-amino-7-(pyridazin-3-yl)-1H-pyrazolo[4,3-c]pyridin-4-yl)benzyl)-5-fluoro-2-methoxybenzamide], the IC50 in the test with NIH/3T3 BTK C481S cells is greater than 50 nM; with NIH/3T3 BTK WT cells it was 10 to 50 nM; in the test with Ramos cells with BTK WT, 10 to 50 nM.
Consider `COc1ccc(F)cc1C(=O)NCc1ccc(-c2ncc(-c3cnc4ccccn34)c3[nH]nc(N)c23)cc1` [Example 55, N-(4-(3-amino-7-(imidazo[1,2-a]pyridin-3-yl)-1H-pyrazolo[4,3-c]pyridin-4-yl)benzyl)-5-fluoro-2-methoxybenzamide], for which the IC50 in the test on NIH/3T3 BTK C481S cells, in the test with NIH/3T3 BTK WT cells and in the test on Ramos cells with BTK WT was greater than 50 nM in each case.
For `COc1ccc(F)cc1C(=O)NCc1ccc(-c2ncc(-c3cnc4ncccn34)c3[nH]nc(N)c23)cc1` [Example 63, N-(4-(3-amino-7-(imidazo[1,2-a]pyrimidin-3-yl)-1H-pyrazolo[4,3-c]pyridin-4-yl)benzyl)-5-fluoro-2-methoxybenzamide], the IC50 in the test with NIH/3T3 BTK C481S cells, with NIH/3T3 BTK WT cells and in the test on Ramos cells with BTK WT was greater than 50 nM each time.
Turning to `COc1ccc(F)cc1C(=O)NCc1ccc(-c2cc(C(C)C(F)(F)F)cc3[nH]nc(N)c23)cc1` (centres unmarked) [Example 86, N-(4-(3-amino-6-(1,1,1-trifluoropropan-2-yl)-1H-indazol-4-yl)benzyl)-5-fluoro-2-methoxybenzamide], the IC50 in the test with NIH/3T3 BTK C481S cells and in the test with NIH/3T3 BTK WT cells was greater than 50 nM throughout.
